# Results as given in paper PMC9998255 (Archives of Pharmacal Research, 2023).
# Key:
# [1] = in vivo; cited from earlier work
# [2] = 0.5 h, pH 7.4
# [3] = tested on: TAA-induced liver fibrosis; design: species or system BALB/c mice; conditions: mouse, in vivo
# [4] = 0.5 h, pH 7.4; remark: listed apart in the source
# NLRP3 inflammasome = format: cell-based, C57BL/6 mice
smiles,measurement,setting,value
CC(=O)OC[C@H]1O[C@@H]([S-])[C@H](OC(C)=O)[C@@H](OC(C)=O)[C@@H]1OC(C)=O.CCP(CC)CC.[Au+] [auranofin],fraction absorbed through the gastrointestinal tract,[1],15–25%
same,percentage remaining after incubation with human liver microsomes,[2],6.9%
same,efficacy on liver fibrosis compared with 10 mg/kg aurocyanide,[3],similar
same,percentage remaining after incubation with mouse liver microsomes,[4],1.5%
same,effect on ATP-induced IL-1β secretion,NLRP3 inflammasome,inhibited ATP-induced IL-1β secretion
